Results reported in the supplement of paper PMC11061612.

Assays:
[1] = system: HPAC (Pancreatic Carcinoma); assay: combination Emax (second highest fraction inhibited in the dose matrix, 72 h); higher = more inhibition; extreme values may be limits of the assay
Outline: (§1)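 Bliss excess equals the observed combination effect minus the expected value EA + EB − EA·EB, where EA and EB are the effects of each agent alone. Combination Emax is the second-highest inhibition within the matrix. Inhibition was scaled from CellTiter-Glo 2.0 luminescence, with 0 set by vehicle wells and 1 by blank wells, after 72 hours of two-drug dosing of cells plated in 1536-well plates.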

[2] = system: LU-99A (Non-Small Cell Lung Carcinoma); assay: as above
Outline: as §1

[3] = system: SW1783 (Low Grade Glioma); assay: as above
Outline: as §1

DSH1 (Bladder Carcinoma) = assay: as above
Outline: as §1

[4] = system: NCI-H1299 (Non-Small Cell Lung Carcinoma); assay: as above
Outline: as §1

[5] = system: DB (B-Cell Non-Hodgkin's Lymphoma); assay: as above
Outline: as §1

[6] = system: HT-29 (Colorectal Carcinoma); assay: as above
Outline: as §1

[7] = system: SUIT-2 (Pancreatic Carcinoma); assay: as above
Outline: as §1

[8] = system: KARPAS-1106P (B-Cell Non-Hodgkin's Lymphoma); assay: as above
Outline: as §1

[9] = system: IHH-4 (Thyroid Gland Carcinoma); assay: Bliss excess, mean over the matrix (fraction); higher = more synergy
Outline: as §1

[10] = system: CFPAC-1 (Pancreatic Carcinoma); assay: as above
Outline: as §1

ES7 (Ewing's Sarcoma) = assay: as above
Outline: as §1

[11] = system: MDA-MB-231 (Breast Carcinoma); assay: as above
Outline: as §1

[12] = system: KM-H2 (Hodgkin's Lymphoma); assay: as above
Outline: as §1

RH-1 (Ewing's Sarcoma) = assay: as above
Outline: as §1

CAL-78 (Chondrosarcoma) = assay: as above
Outline: as §1

J82 (Bladder Carcinoma) = assay: as above
Outline: as §1

[13] = system: 697 (B-Lymphoblastic Leukemia); assay: as above
Outline: as §1

[14] = system: G-292-Clone-A141B1 (Osteosarcoma); assay: as above
Outline: as §1

[15] = system: MDA-MB-157 (Breast Carcinoma); assay: as above
Outline: as §1

Structure (SMILES) | combination Emax [1] | combination Emax [2] | combination Emax [3] | combination Emax (DSH1 (Bladder Carcinoma)) | combination Emax [4] | combination Emax [5] | combination Emax [6] | combination Emax [7] | combination Emax [8] | Bliss excess [9] | Bliss excess [10] | Bliss excess (ES7 (Ewing's Sarcoma)) | Bliss excess [11] | Bliss excess [12] | Bliss excess (RH-1 (Ewing's Sarcoma)) | Bliss excess (CAL-78 (Chondrosarcoma)) | Bliss excess (J82 (Bladder Carcinoma)) | Bliss excess [13] | Bliss excess [14] | Bliss excess [15]
CN(CCO)CC[C@H](CSc1ccccc1)Nc1ccc(S(=O)(=O)NC(=O)c2ccc(N3CCC([C@@H](O)c4ccccc4-c4ccc(Cl)cc4)CC3)cc2)cc1S(=O)(=O)C(F)(F)F [AZD4320] + Cc1cc2ncnn2cc1Nc1ncc2c(n1)n(C1CCOCC1)c(=O)n2C [AZD7648] (first compound max 1 µM, 7x7, partner max 10 µM) | 0.321 | 0.447 | 0.366 | 0.586 | 0.268 | 0.976 | 0.149 | 0.104 | 0.313 | -0.0451 | -0.0345 | -0.0455 | -0.0082 | -0.0231 | -0.0018 | -0.0388 | -0.0435 | -0.0305 | -0.032 | -0.0225
Cn1cnc2c(F)c(Nc3ccc(Br)cc3Cl)c(C(=O)NOCCO)cc21 [Selumetinib] + CC(C)n1c(=O)n(C)c2cnc3cc(F)c(-c4ccc(OCCCN5CCCCC5)nc4)cc3c21 [AZD1390] (first compound max 10 µM, 7x7, partner max 0.3 µM) | 0.678 | 0.358 | 0.0665 | 0.323 | 0.23 | 0.304 | 0.709 | 0.284 | 0.0708 | -0.0326 | -0.0627 | -0.0301 | 0.0101 | -0.027 | -0.0497 | -0.0665 | 0.0142 | -0.0227 | -0.0567 | -0.032
